{
  "source": "patent US20080206738A1",
  "about": "“Compositions and methods for modulating S-nitrosoglutathione reductase” (Duke University, priority 2003, published 2008)",
  "key": {"[1]": {"tested_on": "LPS-challenged GSNOR−/− mice", "assay": "iNOS inhibition with 1400 W in LPS-challenged GSNOR−/− mice (endotoxic shock)", "format": "in vivo, mouse", "excerpt": "Blood was obtained by cardiac puncture after animals were euthanized by CO2 inhalation. The following serum chemistries were quantified by Antech Diagnostics (Farmingdale, N.Y.): alanine aminotransferase (ALT), aspartate aminotransferase (AST), creatine phosphokinase (CPK), urea nitrogen (BUN), creatinine, amylase, lipase, lactate dehydrogenase, alkaline phosphatase, total protein, globulin, albumin, calcium, magnesium, sodium, potassium, chloride, phosphorus, glucose, bilirubin, cholesterol, triglycerides, and osmolality.\nSerum nitrate and nitrite were measured by capillary electrophoresis (CE) (Zunic et al., 1999) with a P/ACE MDQ system (Beckman) and by chemiluminescence (Sievers NO Analyzer). For CE, sera were diluted (1:10) with water and filtered through a 5 kDa cut-off membrane. Electrophoresis of the filtered samples and of nitrate and nitrite standards was carried out in a neutral capillary with Tris buffer (100 mM, pH 8.0), and monitored by absorbance at 214 nm. Nitrite concentrations are higher when measured by CE than by chemiluminescence (Zunic et al., 1999), but no relative differences between CE and chemiluminescence were observed.\nLPS (E. coli, serotype 026:B6, Sigma) at a dosage of 150,000 endotoxin units/g (EU/g) was injected intraperitoneally into C57BL/6 and GSNOR^−/− mice. The mice were matched for age (11-12 weeks old), gender, and weight. LPS used for the males was lot number 050K4117 (15 million EU/mg) and LPS used for the females was lot number 101K4080 (3 million EU/mg). Studies were done in 45 additional male mice (22 wild-type and 23 GSNOR^−/−) administered lot number 101K4080. […] Phosphate-buffered saline (PBS, 20 μl/g) was injected in controls. In additional sets of experiments, LPS-challenged GSNOR^−/− mice were injected subcutaneously with the iNOS inhibitor 1400 W (1 μg/g, Cayman) or PBS (10 μl/g). Injections were performed at 6, 24 and 30 hours after LPS, or at 24, 42 and 48 hours after LPS.\nLiver homogenates were prepared in lysis buffer (20 mM Tris-HCl, pH 8.0, 0.5 mM EDTA, 100 μM diethylenetriamine pentaacetic acid, 0.1% NP-40 and 1 mM phenylmethylsulfonyl fluoride). SNO levels in the total lysate and in a fraction filtered through a 5 kDa cut-off ultrafiltration membrane (low-mass SNO) were measured by photolysis-chemiluminescence (Liu et al., 2000b) and normalized for protein content.\nSurvival data on day 6 after LPS treatment were analyzed by both the χ^2 test and the Fisher exact test of contingency tables, with similar results. Blood pressure, SNO levels and serum chemistries were analyzed with the Student's t-test or with the nonparametric Mann-Whitney test.\nAdditional experiments were performed to establish the contribution of nitrosative stress to the pathogenesis of endotoxic shock. LPS-challenged GSNOR^−/− mice were treated with 1400 W, a selective iNOS inhibitor. Administration of 1400 W, initiated 6 h following LPS injection, reduced serum nitrate (i.e., NOS activity) by about 50% (FIG. 7A, P=0.015) and liver injury by about 90% (FIG. 7C, P=0.020). This improvement coincided with a reduction of liver SNO by about 90% (FIG. 7B). […] By comparison, PBS (volume control) had little effect (FIG. 7D vs. FIG. 3D). When administration of 1400 W was delayed for 24 h following LPS injection, this allowed SNOs to accumulate to hazardous levels, and the protection conferred by NOS inhibition was lost (3 out of 5 female GSNOR^−/− mice died)."}, "[2]": {"tested_on": "animal models of endotoxic shock", "details": "literature (Feihl et al., 2001; Ou et al., 1997); cited from earlier work"}, "cardiac β-ARs": {"tested_on": "cardiac β-ARs", "assay": "Chronic isoproterenol-induced cardiac hypertrophy and β-AR down-regulation in mice (mini-osmotic pump)", "format": "in vivo, mouse", "description": "FIGS. 13A-13C: Results of Cardiac Studies. FIG. 13A: Heart weight to body weight ratio (hw:bw, mg:g) (n=10); FIG. 13B: Cardiac β-AR density (BMax, fmol/mg protein (n=5); FIG. 13C: Cardiac PARK protein expression levels (n=4), in mice following mini-osmotic pump implantation and treatment for 7 days with either PBS, isoproterenol (ISO) (30 mg/kg/day), GSNO (10 mg/kg/day) or a combination of ISO and GSNO. All data expressed as mean (+/−SEM) (*P<0.05 versus PBS treated mice, +P<0.05 versus ISO treated mice, unpaired t test).\nOne well established model of experimental cardiac hypertrophy in the mouse involves the chronic administration of the β-AR agonist, isoproterenol. This treatment leads to a functional uncoupling and down-regulation of cardiac β-ARs and the development of a significant increase in wall mass. Experiments were performed to study the effects of GSNO on the development of cardiac hypertrophy and its ability to alter the pattern of β-AR down-regulation associated with chronic isoproterenol stimulation.\nWhole cell and membrane receptor/ligand binding was performed to assess functional affinity of receptor for ligand and overall receptor density as described previously. In particular, whole cell and membrane binding was assessed for cells treated with multiple concentrations of NO/SNO in the presence and absence of desensitizing conditions (agonist pre-stimulation).\nIn contrast, the combined infusion of GSNO with ISO maintained P receptor density (FIG. 13B) because it inhibits PARK (GRK2) (FIGS. 12A-12B). Therefore, inhibitors of GSNOR alone or in combination with β-agonists could be used to improve heart failure, or other vascular disorders such as hypertension and asthma."}, "GRK2 [3]": {"biological_target": "T1, GRK2 (Homo sapiens, UniProt P25098)", "T1 sequence (P25098 1-689)": "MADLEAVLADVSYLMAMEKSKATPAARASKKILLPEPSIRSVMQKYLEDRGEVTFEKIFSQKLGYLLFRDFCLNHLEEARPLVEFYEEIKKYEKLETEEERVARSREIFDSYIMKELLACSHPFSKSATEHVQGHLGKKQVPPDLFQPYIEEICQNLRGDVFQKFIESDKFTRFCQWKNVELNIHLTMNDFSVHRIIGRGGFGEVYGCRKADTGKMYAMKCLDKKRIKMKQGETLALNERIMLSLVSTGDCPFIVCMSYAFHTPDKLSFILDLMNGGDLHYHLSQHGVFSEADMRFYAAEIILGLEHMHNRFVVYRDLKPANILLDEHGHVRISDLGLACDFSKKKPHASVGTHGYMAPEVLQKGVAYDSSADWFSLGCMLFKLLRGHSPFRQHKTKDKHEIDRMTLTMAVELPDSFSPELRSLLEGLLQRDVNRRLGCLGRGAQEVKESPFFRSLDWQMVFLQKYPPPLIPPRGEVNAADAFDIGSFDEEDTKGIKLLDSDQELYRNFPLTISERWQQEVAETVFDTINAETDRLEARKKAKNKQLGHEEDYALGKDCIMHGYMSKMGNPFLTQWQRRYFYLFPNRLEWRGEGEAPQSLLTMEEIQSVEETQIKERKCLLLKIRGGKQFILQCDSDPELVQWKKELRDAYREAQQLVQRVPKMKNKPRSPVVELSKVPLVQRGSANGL", "assay": "Purified GRK2-mediated in vitro phosphorylation of a soluble peptide substrate (RRREEEEESAAA)", "format": "biochemical", "details": "500, 50, and 5 μM; n=2; P<0.05", "description": "FIGS. 12A-12B: Effect of cysNO (A: 500, 50, and 5 μM) and GSNO (B: 500, 50, and 5 μM) on purified GRK2 mediated in vitro phosphorylation of a soluble peptide substrate (RRREEEEESAAA; SEQ ID NO:30) (n=2; *P<0.05).\nTo confirm this, experiments were performed to examine the capacity of SNOs to inhibit purified GRK2-mediated phosphorylation of a synthetic peptide substrate (RRREEEEESAAA; SEQ ID NO:30)."}, "GRK2 [4]": {"biological_target": "T1, GRK2", "assay": "GRK2-mediated phosphorylation of rhodopsin from purified bovine rod outer segments", "format": "biochemical", "details": "cysNO 5, 50, 500 μM, light stimulated", "description": "(§1) FIGS. 11A-11B. Results from GRK studies. FIG. 11A. Representative gel from experiments examining the effect of cysNO (500, 50, and 5 μM) on isoproterenol (10 μM) stimulated GRK2 mediated receptor phosphorylation using purified β2-AR reconstituted in synthetic vesicles and purified GRK2. FIG. 11B: Representative gel from experiments examining the effect of cysNO (5, 50, and 500 μM) light stimulated GRK2 mediated phosphorylation of rhodopsin using purified bovine rod outer segments and purified GRK2.\n(§2) Previous data provided strong evidence supporting the hypothesis that NO prevented GRK (G protein-coupled receptor kinase)-mediated phosphorylation of the β2-AR (adrenergic receptor). Further experiments were required to determine whether NO was acting directly on the receptor or the GRKs. To elucidate the site of NO action, its effect was tested on GRK2-mediated phosphorylation of the β2-AR and on a soluble peptide substrate using purified proteins in a reconstituted system."}, "GRK2 [5]": {"biological_target": "T1, GRK2", "assay": "GRK2-mediated phosphorylation of purified β2-AR in a reconstituted system", "format": "biochemical", "details": "cysNO 500, 50, 5 μM; isoproterenol (10 μM) stimulated; β2-AR reconstituted in synthetic vesicles", "description": "as §1, §2"}, "[6]": {"details": "administration of 1400 W delayed for 24 h following LPS injection"}, "[7]": {"details": "GSNO 10 mg/kg/day via osmotic mini-pump with ISO 30 mg/kg/day"}, "[8]": {"details": "ISO infused for 7 days using a pump (30 mg/kg/day)"}},
  "data": [
    {"smiles": "CC(=N)NCc1cccc(CN)c1", "note": "[1400 W, N-[3-(aminomethyl)benzyl]acetamidine]", "values": [
      {"measurement": "survival rate of LPS-challenged GSNOR−/− mice", "setting": "[1]; 1400 W initiated 6 h following LPS injection, P=0.03", "value": "significantly improved"},
      {"measurement": "reduction of serum nitrate (i.e., NOS activity)", "setting": "[1]; GSNOR−/− mice, 1400 W 1 μg/g s.c. initiated 6 h following LPS injection, P=0.015", "value": "about 50%"},
      {"measurement": "reduction of liver SNO", "setting": "[1]; GSNOR−/− mice, 1400 W initiated 6 h following LPS injection", "value": "about 90%"},
      {"measurement": "reduction of liver injury (serum ALT)", "setting": "[1]; GSNOR−/− mice, 1400 W initiated 6 h following LPS injection, P=0.020", "value": "about 90%"},
      {"measurement": "tissue injury in kidney, pancreas, and muscle (serum markers)", "setting": "[1]; GSNOR−/− mice, 48 h after LPS treatment, 1400 W initiated 6 h following LPS", "value": "reduced"},
      {"measurement": "female GSNOR−/− mice that died", "setting": "[1]; [6]", "value": "3 out of 5"},
      {"measurement": "protection conferred by NOS inhibition", "setting": "[1]; [6]", "value": "lost"},
      {"measurement": "effect on injury in animal models of endotoxic shock", "setting": "[2]", "value": "either have little effect or worsen injury"}
    ]},
    {"smiles": "N[C@@H](CCC(=O)N[C@@H](CSN=O)C(=O)NCC(=O)O)C(=O)O", "note": "[GSNO, S-nitrosoglutathione]", "values": [
      {"measurement": "isoproterenol-stimulated changes in heart weight to body weight ratio", "setting": "cardiac β-ARs; [7]", "value": "no effect"},
      {"measurement": "β-AR down-regulation", "setting": "cardiac β-ARs; [7]", "value": "significantly decreased"},
      {"measurement": "β receptor density", "setting": "cardiac β-ARs; combined infusion of GSNO with ISO", "value": "maintained"},
      {"measurement": "GRK2 mediated phosphorylation of the synthetic peptide substrate", "setting": "GRK2 [3]", "value": "significantly inhibited"}
    ]},
    {"smiles": "CC(=N)NCCCC[C@H](N)C(=O)O", "note": "[N-(1-iminoethyl)-L-lysine, N6-(1-Iminoethyl)-L-lysine]", "values": [
      {"measurement": "effect on injury in animal models of endotoxic shock", "setting": "[2]", "value": "either have little effect or worsen injury"}
    ]},
    {"smiles": "N[C@@H](CSN=O)C(=O)O", "note": "[cysNO]", "values": [
      {"measurement": "GRK2-mediated phosphorylation of rhodopsin", "setting": "GRK2 [4]", "value": "significantly decreased"},
      {"measurement": "GRK2-mediated phosphorylation of the purified β2-AR", "setting": "GRK2 [5]", "value": "significantly decreased"},
      {"measurement": "GRK2 mediated phosphorylation of the synthetic peptide substrate", "setting": "GRK2 [3]", "value": "significantly inhibited"}
    ]},
    {"smiles": "CC(C)NCC(O)c1ccc(O)c(O)c1", "note": "(stereo not shown) [isoproterenol]", "values": [
      {"measurement": "cardiac weight", "setting": "cardiac β-ARs; [8]", "value": "increases"},
      {"measurement": "β adrenergic receptor levels", "setting": "cardiac β-ARs; [8]", "value": "decreased"},
      {"measurement": "βARK (GRK2) expression", "setting": "cardiac β-ARs; [8]", "value": "increased"}
    ]}
  ]
}
